# Source: patent US6558952B1, “Treatment for diabetes” (Waratah Pharmaceuticals, Inc., priority 1992, dated 2003)
# Marks after values point to notes of the source that are not given here.
# Tested on: normal Wistar rats
# Assay: Pancreatic insulin content in normal rats treated with TGF-α and gastrin
# Assay type: in vivo, rat
# Conditions: i.p. 0.8 μg/day each for 10 days, n=5, mean +/− SEM
# Description: Animals. Mice, FVB and CD strain, were obtained from Taconic Farms, Inc., Germantown, N.Y. The TGF-α transgenic line MT-42 used, which expresses high levels of TGF-α from a metallothionein promoter, is described in Jhappan et al, Cell, 61:1137-1146 (1990). Normal Wistar and Zucker rats were allowed normal chow ad libidum with free access to water and were acclimatized for one week prior to initiation of each study. Freshly prepared streptozotocin at a dose of 80 mg/kg body weight was administered by I.V. five to seven days after induction of diabetes, the rats were randomly allocated into groups for subsequent treatment. Hormones, TGF-α and rat gastrin were reconstituted in sterile normal saline containing 0.1% BSA. […]
# At the end of the study period (10 days), all animals were sacrificed and samples of pancreas taken as follows: five biopsy specimens (1-2 mg) of pancreatic tissue were taken from separate representative sites in each rat pancreas and immediately snap frozen in liquid nitrogen for analysis of insulin content. […] Pancreatic insulin content values were corrected according to protein content and finally expressed as μg insulin/mg pancreatic protein. All values calculated as mean +/− SEM and statistical significance evaluated using Student's 2-sample t-test.
substance,measurement,value
"TGF-α: recombinant Human TGF-α, an EGF receptor ligand, reconstituted in sterile saline containing 0.1% BSA",Pancreatic Insulin Content,30.4 +/− 7.4* μg insulin/mg protein
